{"source": "paper PMC6527222", "about": "(PLoS ONE, 2019)", "key": {"JB6 P+ cells [1]": {"system": "JB6 P+ cells", "test": "SRB cytotoxicity assay", "assay_type": "cell-based, mouse", "settings": "72 hr; NT = no toxicity at any concentration tested", "experimental": "96-well plates were seeded with 3x10^3 JB6 P+ cells per well and allowed to attach overnight. […] Cell viability was determined using Sulforhodamine B (SRB) assay from Sigma-Aldrich according to the manufacturer’s protocol. Cellular protein content was measured using a Bio-Tek μQuant plate reader with KCJunior software.\nConcentration-response curves were normalized so that the EGF positive control on each 96-well plate was set to 100% and the control wells on each plate were set to 0%. Toxicity assays (SRB and MTS) were normalized so that the control on each plate represented 100% viability. Normalization allowed for comparison of data over a range of JB6 P+ cell cultures, passages, and experimental time for the shRNA studies, as well as control for variation in the EGF response, and importantly allowed for a direct comparison to all concentration-response experiments including the toxicity assays. […] All group sizes were determined via previous studies to provide statistically meaningful data. In the soft agar assays, key results were repeated with different JB6 P+ cells to confirm the results. Similarly, the shRNA studies were conducted with three independent concentration-response curves with different JB6 P+ cell stocks. […] For two sample comparisons a t-test was utilized, and when comparing multiple samples a One-, Two-, or Three-Factor ANOVA followed by Tukey-Kramer post hoc test was utilized depending on the data. For all tests, statistical difference was donated when p < 0.05.\nThe IΔ2*PSD is expressed in x-axis units (log [M]) as is an IC50 and it represents the first concentration where it is expected to observe a statistical decrease in the measured signal.\nUsing the formula provided by GraphPad Prism or a straight line for the point-to-point graphs, the X-axis value for point Y was determined. The error is ascribed to this measurement via adding and subtracting the pooled standard deviation (PSD) to/from point Y generating point Y ± PSD. The two new points were then transformed to the X-axis units as was done for point Y creating an asymmetric error in sigmoidal plots. When the error was asymmetric, the larger error value was chosen to err on the conservative side. See S1 Fig for a pictoral explination of the method. The data is presented as IΔ2*PSD ± error."}, "JB6 P+ cells [2]": {"system": "JB6 P+ cells", "test": "MTS cell proliferation assay", "assay_type": "cell-based, mouse", "settings": "two weeks", "experimental": "Cell viability was determined by the addition of MTS reagent according to the manufacturer’s protocol (Promega, Madison, WI) and absorbance was measured using a Bio-Tek μQuant plate reader with KCJunior software. […] Normalization allowed for comparison of data over a range of JB6 P+ cell cultures, passages, and experimental time for the shRNA studies, as well as control for variation in the EGF response, and importantly allowed for a direct comparison to all concentration-response experiments including the toxicity assays. Data are expressed as mean ± SD and were analyzed using GraphPad Prism version 7.02 (La Jolla, CA). All group sizes were determined via previous studies to provide statistically meaningful data. In the soft agar assays, key results were repeated with different JB6 P+ cells to confirm the results. Similarly, the shRNA studies were conducted with three independent concentration-response curves with different JB6 P+ cell stocks. Statistical analysis of raw data was conducted with NCSS 2007 (Kaysville, UT). For two sample comparisons a t-test was utilized, and when comparing multiple samples a One-, Two-, or Three-Factor ANOVA followed by Tukey-Kramer post hoc test was utilized depending on the data. For all tests, statistical difference was donated when p < 0.05."}, "α1D-AR": {"molecular_target": "α1D-AR", "settings": "read-out: Kd towards the α1D-AR; cited from earlier work"}}, "data": [{"smiles": "COc1ccccc1OCCNCC(O)COc1cccc2[nH]c3ccccc3c12", "note": "(stereo not shown) [Carvedilol]", "values": [{"measurement": "SRB Assay Log IΔ2*PSD", "setting": "JB6 P+ cells [1]", "result": "-4.89 ± 0.09 log [M]"}, {"measurement": "toxicity (cell viability), words", "setting": "JB6 P+ cells [2]; 100 μM", "result": "maximum toxicity"}, {"measurement": "toxicity (cell viability), words", "setting": "JB6 P+ cells [2]; concentrations lower than 10 μM", "result": "did not affect cell viability"}, {"measurement": "Kd", "setting": "α1D-AR", "result": 1.2, "unit": "nM"}]}]}
